For series [1] the following is noted: 24 mg/kg of body weight intravenously, rat; serum level by bioassay; cited from earlier work.
Series [2] relates to ovariectomized rats. Kind of series: Autopsy of ovariectomized rats after daily peptide injection. Particulars: 100 μg s.c. daily for eight weeks. In kind it is in vivo, rat. How it is done: The six ovariectomized rats were injected subcutaneously with 100 μl of a 0.1% acetic acid solution containing 100 μg of the chemically synthesized peptide (SEQ ID NO:11) every 24 hours for 28 days. […] Postmortem blood was taken by cardiac puncture and serum frozen until analyzed. A full autopsy was performed on each rat. […] Eight weeks after ovariectomization, five ovariectomized rats were injected subcutaneously with 100 μl of a 0.1% acetic acid solution containing 100 μg of the chemically synthesized peptide in which the N-terminal amino group was modified with an acetyl group (SEQ ID NO:12). This was done every 24 hours for eight weeks. […] Postmortem blood was taken by cardiac puncture and serum frozen until analyzed. An autopsy was performed on each rat.

The test system of series [3] is parathyroidectomized rats. In words: Histological evaluation of selected tissues for toxic lesions after miniosmotic pump implantation. Type of series: in vivo, rat. The conditions noted are these: about 25 μg per day by miniosmotic pump, about 31 days. How it is done:
A miniosmotic pump (Alzet) was loaded with about 1.5 ml of the chemically synthesized peptide having an N-terminal acetyl group (SEQ ID NO:12) in 0.1% acetic acid so as to give a calculated daily delivery of about 25 μg per day. A pump was implanted under the subcutaneous fascia of the dorsal aspect of the left side of the thorax of five rats which had been parathyroidectomized seven days earlier. Five similarly parathyroidectomized rats received similar implants containing only 0.1% acetic acid. Five intact rats were also used as controls.
Histological evaluation of selected tissues of the five rats of each of the groups indicated in Table Four were carried out microscopically.

For series [4], the system named is intact rats. In words: Bone mineral apposition rate by tetracycline labelling in intact rats. In kind it is in vivo, rat.
Series [5] concerns intact rats. The description is as above. In kind it is in vivo, rat. From the text: Tetracycline is excited by long UV light (i.e., with a range close to the blue range) and a bright yellow fluorescence is emitted, which fluorescence is detectable in bone sections viewed with a fluorescence microscope. Tetracycline labels a bone surface when a newly formed collagen matrix begins to incorporate calcium and when such surface is sectioned, the tetracycline appears as a yellow fluorescent band. A subsequently administered dose of tetracycline appears as a second band located superficial to the first band. The distance between the two bands represent the thickness of bone matrix formed in the interval between the two doses. The rate of bone deposition can be calculated by dividing the distance with the time interval between doses. Errors can be introduced by cuts which are not perpendicular to the growing bone surface. To reduce this error, only sites in which the two bands were distinct and parallel to each other were used. Measurements made on 10 randomly chosen sites fulfilling this requirement were chosen to give readings close to the arithmetic mean of the rate.
The measuring system used was a Leitz scanning light microscope photometer MPV-CD with a UV source being provided by a 100 W stabilized mercury burner. Sections were generally magnified using 16× objective using a moving scanning slit, the intensity of the fluorescent band was amplified and recorded. The light signal was transformed into digital output and the profile of the tetracycline intensity recorded. The instrument carries a mechanical error of less than 5%. The distance measured was periodically calibrated with a microscopic grid and a good correlation was found, as shown in FIG. 2.
Intact 400-420 g male rats were used for testing. A control group received the carrier buffer of 50 mM sodium phosphate (pH 7.2). […]
The unstained plastic embedded sections were viewed under a fluorescence microscope with a ×16 objective and ×10 eyepieces systematically to cover the trabecular bone in the space enclosed by the endosteal surface. […]
The source holds these as a separate data set.

Series [6] deals with ovariectomized rats. In words: Right femoral bone calcium density of ovariectomized rats. Type of series: in vivo, rat. How it is done:
Ovariectomies were performed on six female Sprague-Dawley rats, each sedated with 1 mg of sodium barbiturate I.P. Sham operations were carried out a second group of six rats. The rats were given two weeks to recover from the operations. The six ovariectomized rats were injected subcutaneously with 100 μl of a 0.1% acetic acid solution containing 100 μg of the chemically synthesized peptide (SEQ ID NO:11) every 24 hours for 28 days. […] The right femur of each rat was decalcified separately. The decalcification fluid consisted of 10% formic acid (v/v) and 5% sodium citrate (w/v) at pH 3.0. Each bone was placed in 6 ml of the decalcification fluid. The fluid was […] days, again after another 4 days, again after another 2 days, and again after another 3 days. After another 2 days, the decalcification fluid was removed and replaced by deionized water, and the sample agitated for 2 days. The water changed after two days and again after another day. […] The volume of each right femur was determined by determining the volume of water displaced when the bone was immersed in water. The calcium concentration of each sample was determined according to standard methods and the calcium density of each bone calculated. […] The right femurs were decalcified and calcium density determined as before.

Series [7] relates to ovariectomized rats. In words: Bone mineral apposition rate in ovariectomized rats. In kind it is in vivo, rat. Particulars: 100 μg s.c. every 24 hours for 28 days; lower metaphysis of left femur; untreated OVX 0.59, sham 0.85, intact 0.86. The method, then: Ovariectomies were performed on six female Sprague-Dawley rats, each sedated with 1 mg of sodium barbiturate I.P. Sham operations were carried out a second group of six rats. The rats were given two weeks to recover from the operations. The six ovariectomized rats were injected subcutaneously with 100 μl of a 0.1% acetic acid solution containing 100 μg of the chemically synthesized peptide (SEQ ID NO:11) every 24 hours for 28 days. […] A second group of six ovariectomized rats, was similarly treated with a 0.1% acetic acid solution containing no peptide over the same 28 day period. A third group of six rats, each of which had undergone the sham operation, was similarly treated with a 0.1% acetic acid solution containing no peptide over the same 28 day period. A fourth group of six intact rats was similarly treated with a 0.1% acetic acid solution containing no peptide over the same 28 day period. The bone mineral apposition rate was determined, as described previously, by measurement of the lower metaphysis of the left femur. The results are tabulated in Table Six and graphically depicted in FIG. 25.

[8] abbreviates: 0.1 ml of 1 mg per ml solution, subcutaneous, right thigh, lower metaphysis of right femur, control 1.02.

“Also recorded” adds a separate entry of the source. Ends that are not written are not given here.

With `CN(C)[C@@H]1C(O)=C(C(N)=O)C(=O)[C@@]2(O)C(O)=C3C(=O)c4c(O)cccc4[C@@](C)(O)[C@H]3C[C@@H]12` [tetracycline], the “clearance from the circulation” value in series [1] is given as “cleared from the circulation within half an hour”.

On to “Ac-GIGKRTNEHTADCKIKPNTLHKKAAETLMVLDQNQP [SEQ ID NO:12]”, for which the pathology at autopsy result with ovariectomized rats [2] is “No obvious pathology was observed”. The “histological evaluation of selected tissues (toxic lesions)” value in series [3] is given as “No evidence of toxic lesions was found”.

For the compound “GIGKRTNEHTADAKIKPNTLHKKAAETLMVLDQNQP [SEQ ID NO:13]”, in the series with intact rats [4] (0.1 ml of 1 mg per ml solution s.c., compared with control and normal peptide), the bone apposition rate entry is given as “significantly greater than that for those of the control group but below the bone apposition rate shown for the rats injected with the normal peptide”. In the series with intact rats [4] (setting [8]), the “bone mineral apposition rate, Mean” value was determined as 1.35 μm/d.

Consider “GIGKRTNEHTADCKIKPNTLHKKAAETLMVLDQNQP [SEQ ID NO:11]”, for which the “bone apposition rate, Mean” value with intact rats [5] (25 μg in 1 ml, single intramuscular injection, lower metaphysis of right femur, vehicle control 1.03) is given as 1.35 μm/d. Besides, the “bone mineral apposition rate, Mean” value was 1.05 μm/day with intact rats [5] (25 μg single intramuscular injection, lower femoral epiphysis, control 0.85); 1.15 μm/day in the series with intact rats [4] (50 μg single intramuscular injection, lower femoral epiphysis, control 0.85); 1.32 μm/day with intact rats [4] (100 μg single intramuscular injection, lower femoral epiphysis, control 0.85); 1.67 μm/d in the series on intact rats [4] (setting [8]); 0.90 μm/day in the series with ovariectomized rats [7]. Besides, the “dose dependency of stimulant effect” value in the series on intact rats [4] (25-100 μg, intramuscular) is reported as “increases with the amount of peptide administered”. Further, the bone calcium concentration entry in the series on ovariectomized rats [6] (100 μg s.c. daily for 28 days, ovariectomized rats) is listed as “appears to be normal”. The “Right Femoral Calcium Concentration, Mean” value in the series on ovariectomized rats [6] (100 μg s.c. every 24 hours for 28 days, starting two weeks after ovariectomy, untreated OVX 6.61, sham 7.45, intact 7.69) came out at 7.57 µmol/mL.

For “expressed polypeptide: human polypeptide (SEQ ID NO:11 sequence) expressed in E. coli JM 103 from pUC 8 plasmid, purified by C3 HPLC (GIGKRTNEHTADCKIKPNTLHKKAAETLMVLDQNQP)”, the “effect on bone formation” value with intact rats [5] (0.7 and 0.3 O.D. (280 nm) units injected, intact 400-420 g male rats vs carrier buffer) is reported as “appears to have a stimulant effect on bone formation; also recorded: showed biological activity”.

Source of the values: patent publication US6596498B1, “Bone stimulating factor” (Osteopharm Inc., priority 1993, dated 2003).
